From US9662319B2 (Mayo Foundation for Medical Education and Research, priority 2011, dated 2017) come the findings set out here.

Test [1] deals with CRBN depleted myeloma cell lines. Kind of test: MTT cell viability of CRBN shRNA knock-down myeloma cell lines versus NT control cells in presence of anti-myeloma drugs. Particulars: sorted GFP positive myeloma cell lines with CRBN knock-down. It is filed as cell-based, human. The protocol:
(§1) The lentiviruses expressing NT or CRBN shRNAs were subcloned into a GFP containing construct and used to infect various myeloma cell lines as described elsewhere (Zhu et al., Blood, 117(14):3847-3857 (2011); Epublished Feb. 2, 2011). After a 48-hour infection period, efficiency was measured at 72 hours and 6 days post infection by FACScan analysis of GFP expression. Cell viability was measured by 3-(4,5-dimethylthiazol)-2,5-diphenyl tetrazolium (MTT) dye absorbance according to the manufacturer's instructions (Boehringer Mannheim, Mannheim, Germany). Cells were also harvested at 72 hours post infection for real-time PCR analysis of CRBN levels in control and CRBN shRNA expressing cells. At three weeks post infection, GFP-positive cells were sorted and expanded. Real-time PCR was performed to measure CRBN levels in sorted cells.
Plates were incubated for 72 hours to six days. Cell viability was determined using an MTT assay. Each experimental condition was performed in triplicate and repeated at least once.
Proliferation of those CRBN depleted but surviving MM cells were then tested in the absence or presence of different anti-myeloma drugs.

The test system of a further test is human MM cells lines. Kind of test: MTT assay, baseline cytotoxicity on a panel of human MM cell lines. The format is cell-based. Particulars: 11 tested MM cell lines, 1.6 μM to 50 μM, 72 hours, in vitro. The protocol:
as §1
In some experiments, cells were incubated with various doses of lenalidomide, dexamethasone, melphalan, or bortezomib. Plates were incubated for 72 hours to six days. Cell viability was determined using an MTT assay. Each experimental condition was performed in triplicate and repeated at least once.
A MTT assay was performed on a panel of genetically heterogeneous human MM cells lines in vitro (FIG. 1). […] The same dose of thalidomide, however, had no effect on MM cell growth.
(Tetrazolium assays rely on reduction of a dye to a coloured formazan, in cell work by metabolically active cells.)

In the case of `CC(C)C[C@H](NC(=O)[C@H](Cc1ccccc1)NC(=O)c1cnccn1)B(O)O` [Bortezomib], the “sensitivity of CRBN knock-down cells compared with NT control cells” value in test [1] is “more sensitive”.
Take `Nc1cccc2c1CN(C1CCC(=O)NC1=O)C2=O` (stereo not shown) [Lenalidomide]: in the test with human MM cells lines, the “growth of MM cell lines (MTT)” value is on record as “inhibited growth of 8 of 11 tested MM cell lines”.
As for `Nc1cccc2c1C(=O)N(C1CCC(=O)NC1=O)C2=O` (stereo not shown) [pomalidomide], the “sensitivity of CRBN knock-down cells compared with NT control cells” value in test [1] was “resistance”.
Consider `O=C1CCC(N2C(=O)c3ccccc3C2=O)C(=O)N1` (stereo not shown) [thalidomide], for which the “growth of MM cell lines (MTT)” value in the test with human MM cells lines is on record as “no effect”.
